Reference: PubChem BioAssay (NCI)
“And” between values parts separate entries of the source, which are not always exact repeats. Equal values may be shown once.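 Exposure lasted 48 hours, with cells grown in 96-well plates and compounds tested at five concentrations. The concentration for full growth arrest is given as TGI.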

Legend:
Test in all cases: inhibition of tumour cell growth, NCI panel, 48 h
[1] = test system: A498 renal
[2] = test system: SW-620 colon
[3] = test system: SNB-75 CNS
[4] = test system: ACHN renal
[5] = test system: OVCAR-5 ovarian
[6] = test system: MDA-N
[7] = test system: DMS 114 small cell lung
[8] = test system: NCI-H23 lung
[9] = test system: SN12C renal
[10] = test system: RXF 393 renal
[11] = test system: SK-MEL-28 melanoma
[12] = test system: UACC-257 melanoma
[13] = test system: HS 578T breast
[14] = test system: BT-549 breast
[15] = test system: T-47D breast
[16] = test system: HOP-92 NSCLC
[17] = test system: SF-295 CNS
[18] = test system: M19-MEL melanoma
[19] = test system: LXFL 529 NSCLC
[20] = test system: RPMI-8226 leukemia
[21] = test system: OVCAR-3 ovarian
[22] = test system: SF-268 CNS
[23] = test system: CAKI-1 renal
[24] = test system: SR leukemia
[25] = test system: DU-145 prostate
[26] = test system: SF-539 CNS
[27] = test system: M14 melanoma
[28] = test system: MOLT-4 leukemia
[29] = test system: NCI-H460 lung
[30] = test system: SK-OV-3 ovarian
[31] = test system: MDA-MB-231 breast
[32] = test system: A549 NSCLC
[33] = test system: UO-31 renal
[34] = test system: IGROV1 ovarian
[35] = test system: DLD-1 colon
[36] = test system: CCRF-CEM leukemia
[37] = test system: OVCAR-4 ovarian
[38] = test system: KM12 colon
[39] = test system: SK-MEL-2 melanoma
[40] = test system: UACC-62 melanoma
[41] = test system: TK-10 renal
[42] = test system: COLO 205 colon
[43] = test system: MALME-3M melanoma
[44] = test system: MDA-MB-435
[45] = test system: HOP-18 NSCLC
[46] = test system: HL-60(TB) leukemia
[47] = test system: SNB-78 CNS
[48] = test system: K-562 leukemia
[49] = test system: U251 CNS
[50] = test system: HT29 colon
[51] = test system: HOP-62 NSCLC
[52] = test system: HCC-2998 colon
[53] = test system: PC-3 prostate
[54] = test system: DMS 273 small cell lung
[55] = test system: NCI-H522 lung
[56] = test system: EKVX NSCLC
[57] = test system: HCT-116 colon
[58] = test system: NCI-H226 lung
[59] = test system: LOX IMVI melanoma
[60] = test system: SK-MEL-5 melanoma
[61] = test system: OVCAR-8 ovarian

COc1ccc(C2=CN3CCC[C@H]3C=C2c2cc(O)c(OC)c(OC)c2)cc1OC
TGI [1]: 26.9 nM and 62 nM | TGI [2]: 57.8 nM and 20.6 nM | TGI [3]: 9.47 nM | TGI [4]: 95.9 nM | TGI [5]: 127 nM | TGI [6]: 104 nM | TGI [7]: 18.9 nM | TGI [8]: 27.8 nM | TGI [9]: 56.8 nM and 189 nM | TGI [10]: 28.8 nM | TGI [11]: 101 nM and 10.7 nM | TGI [12]: 89.9 nM | TGI [13]: 36 nM | TGI [14]: 331 nM | TGI [15]: 93.8 nM | TGI [16]: 29.4 nM | TGI [17]: 115 nM | TGI [18]: 11 nM | TGI [19]: 78 nM and 376 nM | TGI [20]: 80.6 nM and 202 nM | TGI [21]: 66.9 nM and 27.4 nM | TGI [22]: 112 nM | TGI [23]: 52.2 nM | TGI [24]: 51.8 nM | TGI [25]: 254 nM | TGI [26]: 59.4 nM and 92.7 nM | TGI [27]: 20.4 nM | TGI [28]: 183 nM and 393 nM | TGI [29]: 26.7 nM and 12.7 nM | TGI [30]: 221 nM | TGI [31]: 150 nM | TGI [32]: 274 nM and 172 nM | TGI [33]: 90.5 nM and 23.3 nM | TGI [34]: 300 nM and 85.7 nM | TGI [35]: 62.7 nM and 11.9 nM | TGI [36]: 235 nM | TGI [37]: 37.4 nM | TGI [38]: 39.4 nM | TGI [39]: 16.1 nM | TGI [40]: 33.6 nM | TGI [41]: 153 nM | TGI [42]: 25.6 nM | TGI [43]: 33.3 nM | TGI [44]: 16.5 nM | TGI [45]: 50.4 nM | TGI [46]: 161 nM and 17.5 nM | TGI [47]: 39.1 nM | TGI [48]: 244 nM and 173 nM | TGI [49]: 105 nM and 280 nM | TGI [50]: 113 nM and 37.7 nM | TGI [51]: 122 nM and 148 nM | TGI [52]: 41.2 nM and 43.1 nM | TGI [53]: 53.8 nM | TGI [54]: 21.6 nM | TGI [55]: 26 nM | TGI [56]: 228 nM and 1820 nM | TGI [57]: 10.8 nM | TGI [58]: 29.4 nM | TGI [59]: 7.17 nM | TGI [60]: 15 nM | TGI [61]: 51.8 nM and 10.8 nM
